Biological target: RNA-directed RNA polymerase (Hepacivirus hominis, UniProt O39930)
Assay: Inhibition of Hepatitis C virus genotype 1 NS5B polymerases lacking C-terminal 47 amino acid residues expressed in Escherichia coli after 60 min

Structure (SMILES)	IC50
O=C(O)c1ccc2c(c1)nc(-c1ccc(OCc3cc(N4CCCC4=O)ccc3-c3ccc(Cl)cc3)cc1F)n2C1CCCCC1	12 nM
NC(=O)c1ccc(-c2ccc(Cl)cc2)c(COc2ccc(-c3nc4cc(C(=O)O)ccc4n3C3CCCCC3)c(F)c2)c1	13 nM
Cc1ncc(COc2ccc(-c3nc4cc(C(=O)O)ccc4n3C3CCCCC3)c(F)c2)c(-c2ccc(Cl)cc2)n1	188 nM
CC(=O)NC(=O)c1ccc(-c2ccc(Cl)cc2)c(COc2ccc(-c3nc4cc(C(=O)O)ccc4n3C3CCCCC3)c(F)c2)c1	14 nM

— ChEMBL document CHEMBL3045038, “Structure-based predictive model for some benzimidazole inhibitors of hepatitis C virus NS5B polymerase” (Med Chem Res, 2013)
